{
  "source": "ChEMBL document CHEMBL1201862",
  "about": "“PubChem BioAssay data set” (2004)",
  "key": {"Cytochrome P450 2C9": {"biological_target": "Cytochrome P450 2C9 (Homo sapiens, UniProt P11712)", "sequence (P11712 whole entry)": "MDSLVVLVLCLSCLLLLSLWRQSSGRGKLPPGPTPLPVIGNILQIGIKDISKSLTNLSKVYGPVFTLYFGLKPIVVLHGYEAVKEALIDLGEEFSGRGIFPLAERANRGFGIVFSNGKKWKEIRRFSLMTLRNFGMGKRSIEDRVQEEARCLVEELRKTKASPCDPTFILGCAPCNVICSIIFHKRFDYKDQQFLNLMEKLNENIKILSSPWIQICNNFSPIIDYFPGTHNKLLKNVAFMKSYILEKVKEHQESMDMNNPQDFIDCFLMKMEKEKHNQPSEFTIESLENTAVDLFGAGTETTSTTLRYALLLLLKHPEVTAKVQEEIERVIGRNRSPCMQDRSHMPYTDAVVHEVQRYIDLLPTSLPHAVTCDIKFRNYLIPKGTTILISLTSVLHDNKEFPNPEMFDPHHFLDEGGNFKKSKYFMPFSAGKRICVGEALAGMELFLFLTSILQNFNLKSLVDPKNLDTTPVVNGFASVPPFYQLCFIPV", "settings": "Potency"}, "Cytochrome P450 3A4": {"biological_target": "Cytochrome P450 3A4 (Homo sapiens, UniProt P08684)", "sequence (P08684 whole entry)": "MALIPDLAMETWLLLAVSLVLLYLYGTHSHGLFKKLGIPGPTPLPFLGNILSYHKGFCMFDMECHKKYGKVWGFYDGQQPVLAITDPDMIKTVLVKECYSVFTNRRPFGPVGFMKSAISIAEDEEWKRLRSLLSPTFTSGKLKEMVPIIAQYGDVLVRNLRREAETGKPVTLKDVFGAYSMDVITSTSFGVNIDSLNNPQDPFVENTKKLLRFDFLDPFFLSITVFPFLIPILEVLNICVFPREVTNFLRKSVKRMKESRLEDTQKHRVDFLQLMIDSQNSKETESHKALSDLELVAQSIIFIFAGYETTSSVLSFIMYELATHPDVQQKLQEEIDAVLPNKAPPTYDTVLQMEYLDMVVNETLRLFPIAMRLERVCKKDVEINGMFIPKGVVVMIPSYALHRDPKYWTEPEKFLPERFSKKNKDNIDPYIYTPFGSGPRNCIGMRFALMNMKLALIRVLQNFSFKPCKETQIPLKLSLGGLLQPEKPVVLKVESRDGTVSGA", "settings": "Potency"}, "[1]": {"test": "viability of uninfected HEp-2 cells – cell-based, HTS, cytotoxicity control for RSV inhibitor project, dose response (AID 2410)", "assay_type": "functional", "settings": "human respiratory syncytial virus"}, "Vero [2]": {"system": "Vero", "test": "cells", "assay_type": "functional", "settings": "Chlorocebus sabaeus"}, "[3]": {"biological_target": "Luciferin 4-monooxygenase (Photinus pyralis, UniProt P08659)", "sequence (P08659 whole entry)": "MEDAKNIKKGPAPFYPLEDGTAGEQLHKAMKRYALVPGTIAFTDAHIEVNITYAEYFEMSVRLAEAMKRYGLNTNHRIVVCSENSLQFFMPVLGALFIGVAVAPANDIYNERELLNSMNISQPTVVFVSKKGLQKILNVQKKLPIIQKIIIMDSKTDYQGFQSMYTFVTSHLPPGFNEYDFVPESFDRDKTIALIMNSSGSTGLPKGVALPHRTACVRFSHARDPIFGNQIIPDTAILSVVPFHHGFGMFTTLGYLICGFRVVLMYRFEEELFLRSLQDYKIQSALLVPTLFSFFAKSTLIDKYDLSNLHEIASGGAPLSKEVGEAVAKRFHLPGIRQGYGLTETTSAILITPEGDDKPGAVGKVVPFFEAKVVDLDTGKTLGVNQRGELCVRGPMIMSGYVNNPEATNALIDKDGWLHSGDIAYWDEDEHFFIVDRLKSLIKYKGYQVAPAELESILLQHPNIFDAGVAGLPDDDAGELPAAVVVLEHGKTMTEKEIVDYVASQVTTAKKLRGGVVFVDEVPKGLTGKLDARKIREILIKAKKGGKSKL", "test": "In vitro luciferase assay using purified luciferase. [Related pubchem assays: 1299, 1270, 1295, 1375, 1287, 1281, 1293, 1291, 1289, 1280, 465, 1364, 1282, 1372, 1365, 1370, 1367, 1366, 1266, 1373, 1292, 1290, 1302, 1371, 1283, 1271, 1294, 1374, 1368, 1369 ]"}, "HEK293 [4]": {"system": "HEK293", "test": "TNF Induced NF-kB Luciferase in 293-NF-kB-Luc Stable Cells. [Related pubchem assays: 1266, 1299, 1269, 1373, 1292, 1290, 1302, 1371, 1283, 1270, 1295, 1271, 1375, 1294, 1374, 1281, 1293, 1291, 1289, 1280, 465, 1368, 1364, 1282, 1372, 1365, 1369, 1370, 1367, 1366 ]", "assay_type": "functional, cell-based", "settings": "Homo sapiens"}, "HEK293 [5]": {"system": "HEK293", "test": "Cytotoxicity assay in HEK293 cells. [Related pubchem assays (depositor defined):AID1266, AID1269, AID1270, AID1271, AID1280, AID1281, AID1282, AID1283, AID1287, AID1289, AID1290, AID1291, AID1292, AID1293, AID1294, AID1295, AID1299, AID1302, AID1364, AID1365, AID1366, AID1367, AID1369, AID1370, AID1371, AID1372, AID1373, AID1374, AID1375, AID1384 …", "assay_type": "functional, cell-based", "settings": "Homo sapiens"}, "Vero [6]": {"system": "Vero", "test": "cells", "assay_type": "functional, cell-based", "settings": "Chlorocebus sabaeus"}, "HEK293 [7]": {"system": "HEK293", "test": "PMA/Ionomycin induced NF-kB luciferase assay in 293- NF-kB-Luc stable cells. [Related pubchem assays: 1299, 1270, 1295, 1375, 1287, 1281, 1293, 1291, 1289, 1280, 465, 1364, 1282, 1372, 1365, 1370, 1367, 1366, 1269, 1373, 1292, 1290, 1302, 1371, 1283, 1271, 1294, 1374, 1368, 1369 ]", "assay_type": "functional, cell-based", "settings": "Homo sapiens"}, "HEK293 [8]": {"system": "HEK293", "test": "PMA/Ionomycin-induced IL-8 production in HEK293- NF-kB-Luc stable cells. [Related pubchem assays: 1299, 1295, 1375, 1287, 1281, 1293, 1291, 1289, 1280, 465, 1364, 1282, 1372, 1365, 1367, 1366, 1266, 1269, 1373, 1292, 1290, 1302, 1371, 1283, 1271, 1294, 1374, 1368, 1369 ]", "assay_type": "functional, cell-based", "settings": "Homo sapiens"}, "[9]": {"biological_target": "Lysosomal acid glucosylceramidase (Homo sapiens, UniProt P04062)", "sequence (P04062 whole entry)": "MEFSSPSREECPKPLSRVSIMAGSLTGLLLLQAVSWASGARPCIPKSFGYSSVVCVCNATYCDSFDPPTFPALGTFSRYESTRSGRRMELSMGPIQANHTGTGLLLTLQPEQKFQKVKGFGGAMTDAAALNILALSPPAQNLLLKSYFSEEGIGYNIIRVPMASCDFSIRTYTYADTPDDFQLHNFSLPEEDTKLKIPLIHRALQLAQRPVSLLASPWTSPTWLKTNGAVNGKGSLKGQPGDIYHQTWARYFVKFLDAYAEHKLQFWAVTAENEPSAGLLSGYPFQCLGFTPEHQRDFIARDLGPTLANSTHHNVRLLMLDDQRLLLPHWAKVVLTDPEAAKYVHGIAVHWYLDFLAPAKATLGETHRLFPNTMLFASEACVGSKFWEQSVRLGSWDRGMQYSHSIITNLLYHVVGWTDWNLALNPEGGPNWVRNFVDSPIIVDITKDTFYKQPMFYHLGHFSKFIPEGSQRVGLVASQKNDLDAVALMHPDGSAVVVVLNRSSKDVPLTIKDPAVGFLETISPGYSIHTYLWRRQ", "test": "Dose response cell-based high throughput screening assay to identify enhancers of beta-glucosidase activity. [Related pubchem assays: 784 ]", "assay_type": "functional"}, "[10]": {"biological_target": "Acyl-homoserine lactone acylase PvdQ (Pseudomonas aeruginosa (strain LESB58), UniProt Q9I194)", "sequence (Q9I194 24-193 limits assumed)": "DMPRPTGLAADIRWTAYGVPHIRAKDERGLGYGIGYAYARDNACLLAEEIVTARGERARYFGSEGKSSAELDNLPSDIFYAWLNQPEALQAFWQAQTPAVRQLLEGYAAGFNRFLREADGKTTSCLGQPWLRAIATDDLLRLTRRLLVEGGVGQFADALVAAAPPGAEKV", "sequence (Q9I194 217-762 limits assumed)": "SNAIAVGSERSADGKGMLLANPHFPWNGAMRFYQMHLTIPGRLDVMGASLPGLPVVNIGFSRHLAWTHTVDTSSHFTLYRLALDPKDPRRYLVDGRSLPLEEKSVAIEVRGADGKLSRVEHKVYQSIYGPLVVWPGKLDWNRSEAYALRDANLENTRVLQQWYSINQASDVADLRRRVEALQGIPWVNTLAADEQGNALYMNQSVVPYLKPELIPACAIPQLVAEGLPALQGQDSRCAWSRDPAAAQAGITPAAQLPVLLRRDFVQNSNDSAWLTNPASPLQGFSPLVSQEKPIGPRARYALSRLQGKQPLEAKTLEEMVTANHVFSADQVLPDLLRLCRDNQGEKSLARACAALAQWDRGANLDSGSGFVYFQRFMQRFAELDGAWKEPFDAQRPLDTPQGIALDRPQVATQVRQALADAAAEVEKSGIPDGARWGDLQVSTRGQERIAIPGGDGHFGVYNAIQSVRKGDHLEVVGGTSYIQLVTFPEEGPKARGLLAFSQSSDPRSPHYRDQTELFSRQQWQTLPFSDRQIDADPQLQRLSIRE", "test": "PvdQ acylase enzyme activity blockers – biochemical, fluorescence, plate reader and imaging, cherry-picks, dose response (AID 493231)"}},
  "note": "Active and inactive are the calls of the source.",
  "data": [
    {"smiles": "CC1CN2C(CCC(C)C2c2ccc(Br)cc2)C(=O)O1", "note": "(stereo not drawn)", "values": [
      {"measurement": "AC50", "setting": "Cytochrome P450 2C9", "value": "3.98 µM (inconclusive)"},
      {"measurement": "AC50", "setting": "Cytochrome P450 3A4", "value": "5.01 µM (inconclusive)"}
    ]},
    {"smiles": "Cc1oc(-c2ccccc2Cl)nc1CSCC(=O)N1CCCC1", "values": [
      {"measurement": "CC50", "setting": "[1]", "value": "16 µM (active)"},
      {"measurement": "CC50", "setting": "Vero [2]", "value": "> 25 µM (active)"},
      {"measurement": "IC50", "setting": "cells", "value": "11 µM (active)"},
      {"measurement": "EC50", "setting": "[3]", "value": "> 8 µM (not active)"},
      {"measurement": "EC50", "setting": "HEK293 [4]", "value": "> 8 µM (not active)"},
      {"measurement": "EC50", "setting": "HEK293 [5]", "value": "> 8 µM (inactive)"},
      {"measurement": "IC50", "setting": "Vero [6]", "value": "2.28 µM (active)"},
      {"measurement": "EC50", "setting": "HEK293 [7]", "value": "< 4 µM (active)"},
      {"measurement": "EC50", "setting": "HEK293 [8]", "value": "11.1 µM (not active)"}
    ]},
    {"smiles": "O=C(OCCN1CCCCC1)c1cc2ccccc2o1", "values": [
      {"measurement": "EC50", "setting": "[9]", "value": "> 10 µM (not active)"}
    ]},
    {"smiles": "O=C1C=C(c2ccccc2C(F)(F)F)C[C@@H](c2ccc3c(c2)OCO3)C1", "values": [
      {"measurement": "AC50", "setting": "[10]", "value": "> 100 µM (inactive)"}
    ]}
  ]
}
